The results in this text go back to BindingDB's records for doi:10.1021/jm0311442 (University of Newcastle, 2004).

The assay deals with Cyclin-dependent kinase 1/G2/mitotic-specific cyclin-B (Marthasterias glacialis, UniProt P15206+Q9DGD3). The assay is described as follows: Kinase Inhibition Assay.
Cyclin-dependent kinase 1/G2/mitotic-specific cyclin-B, sequence (Q9DGD3 whole entry): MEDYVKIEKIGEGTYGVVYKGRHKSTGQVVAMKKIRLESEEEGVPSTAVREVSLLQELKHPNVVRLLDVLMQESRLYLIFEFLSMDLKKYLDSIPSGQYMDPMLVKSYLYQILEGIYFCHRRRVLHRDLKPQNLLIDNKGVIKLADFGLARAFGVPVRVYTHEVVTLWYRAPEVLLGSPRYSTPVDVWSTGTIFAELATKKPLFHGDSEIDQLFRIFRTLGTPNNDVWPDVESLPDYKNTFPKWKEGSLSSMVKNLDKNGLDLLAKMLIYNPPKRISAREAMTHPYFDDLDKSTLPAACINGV
Cyclin-dependent kinase 1/G2/mitotic-specific cyclin-B, sequence (P15206 whole entry): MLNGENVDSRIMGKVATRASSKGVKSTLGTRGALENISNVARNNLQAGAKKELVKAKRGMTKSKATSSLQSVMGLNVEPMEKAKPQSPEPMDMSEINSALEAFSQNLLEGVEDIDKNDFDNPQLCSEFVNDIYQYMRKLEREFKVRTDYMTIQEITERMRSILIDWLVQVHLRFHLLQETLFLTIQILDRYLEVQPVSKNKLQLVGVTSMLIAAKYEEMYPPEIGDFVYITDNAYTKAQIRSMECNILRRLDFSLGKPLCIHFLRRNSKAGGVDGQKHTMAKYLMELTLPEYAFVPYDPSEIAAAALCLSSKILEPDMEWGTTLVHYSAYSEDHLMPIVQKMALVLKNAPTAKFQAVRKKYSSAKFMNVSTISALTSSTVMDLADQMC

`CS(=O)(=O)c1ccc(Nc2nc(OCC3CCCCC3)c3[nH]cnc3n2)cc1` [6-(cyclohexylmethoxy)-N-(4-methanesulfonylphenyl)-9H-purin-2-amine] displayed an IC50 of 0.08 µM.
